Among the data in patent US20230000870A1, “METHODS OF TREATING CANCER IN BIOMARKER-IDENTIFIED PATIENTS WITH INHIBITORS OF CYCLIN-DEPENDENT KINASE 7 (CDK7)” (Syros Pharmaceuticals, Inc., priority 2019, published 2023) are IC50 values, retold here.

One assay addresses CDK2/Cyclin E1 complex (Homo sapiens, UniProt P24941). Kind of assay: CDK2 kinase inhibition assay (Caliper/LabChip EZ Reader). It counts as biochemical. The conditions noted are these: CDK2/Cyclin E1 0.5 nM, ATP 2 mM, 35 min at 27° C. As for the experimental part:
(§1) Compounds of the invention were assayed for inhibition of CDK7, CDK9, CDK12, and CDK2 activity at Biortus Biosciences (Jiangyin, Jiangsu Province, P.R. of China) using kinase assays for each CDK developed with a Caliper/LabChip EZ Reader (Perkin Elmer, Waltham, Mass.).
(§2) Furthermore, the CDK9 inhibition assay used CDK9/Cyclin T1 complex (8 nM) and “5-FAM-CDK9tide” peptide substrate (2 μM, synthesized fluorophore-labeled peptide with the following sequence: 5-FAM-GSRTPMY-NH2 where 5-FAM is defined above and NH2 signifies a C-terminal amide) with 10 mM MgCl2 in the buffer composition listed above. The CDK12 inhibition assay used CDK12 (aa686-1082)/Cyclin K complex (50 nM) and “5-FAM-CDK9tide” (2 μM) as defined above, with 2 mM MgCl2 in the buffer composition above. Additionally, the CDK2 inhibition assay used CDK2/Cyclin E1 complex (0.5 nM) and “5-FAM-CDK7tide” (2 μM) as defined above, with 2 mM MgCl2 in the buffer composition listed above.
(§3) The incubation period at 27° C. for each CDK inhibition assay was chosen such that the fraction of phosphorylated peptide product produced in each assay, relative to the total peptide concentration, was approximately 20% (±5%) for the uninhibited kinase (35 min. for CDK7, 35 min. for CDK2, 3 hr. for CDK12, 15 min. for CDK9).

In assay [1] the target is CDK7/Cyclin H/MAT1 complex (Homo sapiens, UniProt P50613). The experiment in a line: CDK7 kinase inhibition assay (Caliper/LabChip EZ Reader). It counts as biochemical. The conditions noted are these: CDK7/Cyclin H/MAT1 6 nM, ATP 2 mM, 35 min at 27° C. On the procedure:
as §1, §2, §3

In a further assay the target is CDK9/Cyclin T1 complex (Homo sapiens, UniProt P50750). Kind of assay: CDK9 kinase inhibition assay (Caliper/LabChip EZ Reader). The class given is biochemical. The conditions noted are these: CDK9/Cyclin T1 8 nM, ATP 2 mM, 15 min at 27° C. On the procedure: as §1, §2, §3
Sequence of CDK9/Cyclin T1 complex (P50750 whole entry, the tested form may be a part): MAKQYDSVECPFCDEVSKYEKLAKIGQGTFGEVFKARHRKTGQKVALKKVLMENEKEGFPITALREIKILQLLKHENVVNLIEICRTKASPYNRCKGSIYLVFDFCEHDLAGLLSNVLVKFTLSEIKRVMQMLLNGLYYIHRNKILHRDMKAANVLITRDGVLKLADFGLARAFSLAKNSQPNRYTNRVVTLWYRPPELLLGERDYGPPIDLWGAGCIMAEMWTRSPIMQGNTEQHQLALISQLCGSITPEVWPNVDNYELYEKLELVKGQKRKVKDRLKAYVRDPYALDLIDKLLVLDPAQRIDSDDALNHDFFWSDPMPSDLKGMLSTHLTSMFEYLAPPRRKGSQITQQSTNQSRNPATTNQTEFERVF
Sequence of CDK9/Cyclin T1 complex (O60563 whole entry partner, the tested form may be a part): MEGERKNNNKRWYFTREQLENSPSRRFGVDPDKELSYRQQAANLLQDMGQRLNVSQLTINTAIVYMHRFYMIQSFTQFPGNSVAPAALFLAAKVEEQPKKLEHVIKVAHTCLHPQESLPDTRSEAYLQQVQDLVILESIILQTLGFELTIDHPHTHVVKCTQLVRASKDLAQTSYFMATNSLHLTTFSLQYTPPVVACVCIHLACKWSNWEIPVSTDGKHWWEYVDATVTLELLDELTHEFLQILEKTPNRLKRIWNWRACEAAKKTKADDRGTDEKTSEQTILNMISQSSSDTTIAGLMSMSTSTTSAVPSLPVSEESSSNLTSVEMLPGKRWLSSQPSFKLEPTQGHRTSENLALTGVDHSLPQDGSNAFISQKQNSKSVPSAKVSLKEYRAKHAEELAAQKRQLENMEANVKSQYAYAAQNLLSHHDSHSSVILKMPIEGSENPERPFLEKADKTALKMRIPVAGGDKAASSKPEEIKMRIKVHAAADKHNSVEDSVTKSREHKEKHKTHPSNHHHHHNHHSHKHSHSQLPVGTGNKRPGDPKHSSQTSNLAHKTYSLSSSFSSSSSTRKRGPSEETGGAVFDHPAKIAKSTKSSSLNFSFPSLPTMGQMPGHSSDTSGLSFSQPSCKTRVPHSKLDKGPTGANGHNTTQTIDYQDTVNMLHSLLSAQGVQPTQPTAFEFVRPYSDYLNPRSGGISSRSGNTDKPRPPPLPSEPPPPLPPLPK
The target of assay [2] is T1, CDK12 (aa686-1082)/Cyclin K complex (Homo sapiens, UniProt Q9NYV4).
T1 construct: CDK12 (aa686-1082)/Cyclin K complex
T1 sequence (Q9NYV4 686-1082): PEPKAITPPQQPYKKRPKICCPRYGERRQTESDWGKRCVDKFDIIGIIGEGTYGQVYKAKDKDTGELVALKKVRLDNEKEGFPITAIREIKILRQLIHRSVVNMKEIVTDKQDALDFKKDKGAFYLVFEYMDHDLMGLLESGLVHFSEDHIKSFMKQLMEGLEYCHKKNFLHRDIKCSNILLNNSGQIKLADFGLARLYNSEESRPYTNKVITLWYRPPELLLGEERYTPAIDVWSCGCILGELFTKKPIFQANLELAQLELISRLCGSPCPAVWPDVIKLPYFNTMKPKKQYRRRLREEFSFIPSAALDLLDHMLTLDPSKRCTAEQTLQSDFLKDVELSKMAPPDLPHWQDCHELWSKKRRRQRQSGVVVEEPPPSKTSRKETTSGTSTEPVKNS
T1 sequence (O75909 whole entry partner, the tested form may be a part): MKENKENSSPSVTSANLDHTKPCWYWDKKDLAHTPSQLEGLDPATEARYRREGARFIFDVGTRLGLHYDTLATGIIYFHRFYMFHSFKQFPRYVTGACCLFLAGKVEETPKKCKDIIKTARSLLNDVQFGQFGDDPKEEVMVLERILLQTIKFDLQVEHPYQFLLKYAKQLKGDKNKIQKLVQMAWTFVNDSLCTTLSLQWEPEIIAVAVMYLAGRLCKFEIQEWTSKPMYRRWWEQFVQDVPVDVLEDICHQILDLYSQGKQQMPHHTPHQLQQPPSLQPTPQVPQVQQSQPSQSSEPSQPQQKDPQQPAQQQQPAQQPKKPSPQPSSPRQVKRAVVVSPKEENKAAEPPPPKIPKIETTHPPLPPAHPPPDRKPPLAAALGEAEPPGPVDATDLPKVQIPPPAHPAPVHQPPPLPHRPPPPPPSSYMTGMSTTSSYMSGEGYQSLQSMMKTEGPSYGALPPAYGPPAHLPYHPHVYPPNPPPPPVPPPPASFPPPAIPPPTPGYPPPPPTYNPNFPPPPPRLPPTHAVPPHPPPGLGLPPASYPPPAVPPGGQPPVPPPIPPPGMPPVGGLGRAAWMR
The experiment in a line: CDK12 kinase inhibition assay (Caliper/LabChip EZ Reader). It counts as biochemical. As to conditions: CDK12 (aa686-1082)/Cyclin K 50 nM, ATP 2 mM, 3 hr at 27° C. On the procedure: as §1, §2, §3

Another assay has as its system A673 cells. Kind of assay: Inhibition of proliferation of A673 cells (CyQUANT, 72 hour). The class given is cell-based, human. As to conditions: read-out: Inhibition of Proliferation of A673 Cells (calculated IC50). On the procedure: A673 Cells: A673 cells are a cell line derived from human muscle Ewing's sarcoma. Representative compounds of the invention were tested at different concentrations (from 4 μM to […]; 0.5 log serial dilutions) for their ability to inhibit the proliferation of A673 cells. Known CDK inhibitors dinaciclib or N-((1S,3R)-3-((5-chloro-4-(1H-indol-3-yl)pyrimidin-2-yl)amino)cyclohexyl)-5-((E)-4-(dimethylamino)but-2-enamido)picolinamide and triptolide were used as positive controls. Cells were grown in Dulbecco's Modified Eagle's Medium, +10% FBS+1 mM Sodium Pyruvate. The cells were cultured at 37° C. in a humidified chamber in the presence of 5% CO2. Proliferation assays were conducted over a 72 hour time period. CyQUANT® (Life Technologies, Chicago, Ill. USA) was used to assess the anti-proliferative effects of the compounds following manufacturer's directions and utilizing the reagents supplied with the CyQUANT® kit.

Sequence of CDK7/Cyclin H/MAT1 complex (P50613 whole entry): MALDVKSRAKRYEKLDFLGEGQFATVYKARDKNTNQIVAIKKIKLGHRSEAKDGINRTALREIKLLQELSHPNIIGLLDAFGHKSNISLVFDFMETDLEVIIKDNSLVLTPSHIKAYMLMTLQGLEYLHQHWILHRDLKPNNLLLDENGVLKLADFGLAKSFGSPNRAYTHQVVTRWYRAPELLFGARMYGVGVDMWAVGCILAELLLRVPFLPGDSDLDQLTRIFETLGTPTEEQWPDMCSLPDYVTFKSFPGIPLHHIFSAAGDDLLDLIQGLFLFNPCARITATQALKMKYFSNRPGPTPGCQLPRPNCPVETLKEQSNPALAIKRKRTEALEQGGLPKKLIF
Sequence of CDK7/Cyclin H/MAT1 complex (P51946 whole entry partner): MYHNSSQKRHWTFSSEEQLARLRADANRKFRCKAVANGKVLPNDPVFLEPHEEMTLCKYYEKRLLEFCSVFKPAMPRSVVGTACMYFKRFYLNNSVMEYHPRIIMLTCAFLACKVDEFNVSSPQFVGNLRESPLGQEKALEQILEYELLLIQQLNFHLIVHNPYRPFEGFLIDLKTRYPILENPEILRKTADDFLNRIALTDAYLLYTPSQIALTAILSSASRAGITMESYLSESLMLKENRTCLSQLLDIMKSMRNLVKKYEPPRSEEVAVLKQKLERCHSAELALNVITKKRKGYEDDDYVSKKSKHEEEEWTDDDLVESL
Sequence of CDK7/Cyclin H/MAT1 complex (P51948 whole entry partner): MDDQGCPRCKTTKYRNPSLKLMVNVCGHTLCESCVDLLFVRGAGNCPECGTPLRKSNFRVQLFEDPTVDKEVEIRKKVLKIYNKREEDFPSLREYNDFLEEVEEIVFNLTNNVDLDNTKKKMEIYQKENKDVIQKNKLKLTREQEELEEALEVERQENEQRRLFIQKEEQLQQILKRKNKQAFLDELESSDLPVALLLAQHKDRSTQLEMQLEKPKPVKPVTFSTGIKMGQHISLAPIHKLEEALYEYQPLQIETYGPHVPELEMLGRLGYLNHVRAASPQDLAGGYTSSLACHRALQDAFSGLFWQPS

For `CC1(C)CCNC[C@H]1Nc1ncc(C(F)(F)F)c(-c2c[nH]c3ccccc23)n1` [Compound 210], the IC50 at CDK2/Cyclin E1 complex was at least 5 µM; in assay [1] it was 0.2 to 5 µM; against CDK9/Cyclin T1 complex, at least 5 µM; in assay [2], at least 5 µM; in the assay with A673 cells it was 0.2 to 5 µM.

Turning to `Cn1cc(-c2ccc3c(-c4nc(NC5CCCNC5)ncc4C(F)(F)F)c[nH]c3c2)cn1` (stereo not shown) [Compound 181], the IC50 against CDK2/Cyclin E1 complex is 0.2 to 5 µM; in assay [1] it was under 0.02 µM; at CDK9/Cyclin T1 complex, 0.2 to 5 µM; in assay [2], 0.2 to 5 µM; in the assay on A673 cells, under 0.02 µM.

Regarding `CC1(Nc2ncc(Cl)c(-c3c[nH]c4ccccc34)n2)CCCNC1` (stereo not shown) [Compound 115], the IC50 on CDK2/Cyclin E1 complex was at least 5 µM; in assay [1], 0.2 to 5 µM; against CDK9/Cyclin T1 complex, at least 5 µM; in assay [2], at least 5 µM; in the assay on A673 cells, 0.2 to 5 µM.

Take `CS(=O)(=O)c1cccn2c(C3CNCC(Nc4ncc(C(F)(F)F)c(-c5c[nH]c6ccccc56)n4)C3)nnc12` (stereo not shown) [Compound 265]: the IC50 on CDK2/Cyclin E1 complex is 0.2 to 5 µM; in assay [1] it was 0.2 to 5 µM; against CDK9/Cyclin T1 complex, 0.2 to 5 µM; in assay [2], 0.2 to 5 µM; in the assay on A673 cells, 0.02 to 0.2 µM.

Consider `CC(C)(O)Cn1cc(-c2ccc3c(-c4nc(N[C@H]5CCCNC5)ncc4C(F)(F)F)c[nH]c3c2)cn1` [Compound 214], for which the IC50 at CDK2/Cyclin E1 complex was 0.2 to 5 µM; in assay [1], 0.02 to 0.2 µM; on CDK9/Cyclin T1 complex, 0.2 to 5 µM; in assay [2], 0.2 to 5 µM; in the assay with A673 cells, 0.02 to 0.2 µM.

For `Clc1cnc(NC2CCCNC2)nc1-c1c[nH]c2ccccc12` (stereo not shown) [Compound 100], the IC50 against CDK2/Cyclin E1 complex was 0.2 to 5 µM; in assay [1] it was under 0.02 µM; against CDK9/Cyclin T1 complex, 0.2 to 5 µM; in assay [2] it was 0.2 to 5 µM; with A673 cells it was under 0.02 µM.

With `FC1(F)CNC[C@@H](Nc2ncc(C(F)(F)F)c(-c3c[nH]c4ccccc34)n2)C1` [Compound 236], the IC50 was 0.2 to 5 µM against CDK2/Cyclin E1 complex; under 0.02 µM in assay [1]; 0.2 to 5 µM on CDK9/Cyclin T1 complex; 0.2 to 5 µM in assay [2]; 0.02 to 0.2 µM in the assay with A673 cells.

In the case of `CNS(=O)(=O)c1ccc2c(-c3nc(N[C@H]4CCCNC4)ncc3C(F)(F)F)c[nH]c2c1` [Compound 200], the IC50 against CDK2/Cyclin E1 complex was 0.2 to 5 µM; in assay [1], under 0.02 µM; at CDK9/Cyclin T1 complex, 0.2 to 5 µM; in assay [2], 0.2 to 5 µM; with A673 cells it was 0.02 to 0.2 µM.

Consider `COCCn1cc(-c2nc(NC3CCCNC3)ncc2Cl)c2ccccc21` (stereo not shown) [Compound 122], for which the IC50 at CDK2/Cyclin E1 complex is at least 5 µM; in assay [1] it was 0.2 to 5 µM; at CDK9/Cyclin T1 complex, 0.2 to 5 µM; in assay [2], at least 5 µM; with A673 cells, 0.2 to 5 µM.

Consider `CNC(=O)C1CNCC(Nc2ncc(C(F)(F)F)c(-c3c[nH]c4ccccc34)n2)C1` (stereo not shown) [Compound 252], for which the IC50 was 0.2 to 5 µM against CDK2/Cyclin E1 complex; 0.02 to 0.2 µM in assay [1]; at least 5 µM at CDK9/Cyclin T1 complex; at least 5 µM in assay [2]; 0.2 to 5 µM in the assay with A673 cells.

With `Clc1cnc(NC2CCCNC2)nc1-c1c[nH]c2ccc(N3CCOCC3)cc12` (stereo not shown) [Compound 151], the IC50 on CDK2/Cyclin E1 complex is at least 5 µM; in assay [1], 0.2 to 5 µM; at CDK9/Cyclin T1 complex it was at least 5 µM; in assay [2], at least 5 µM; with A673 cells it was 0.02 to 0.2 µM.

`FC(F)(F)c1cnc(NC2CCCNC2)nc1-c1c[nH]c2cc(N3CCCC3)ccc12` (stereo not shown) [Compound 213]: the IC50 against CDK2/Cyclin E1 complex is at least 5 µM; in assay [1], 0.02 to 0.2 µM; against CDK9/Cyclin T1 complex it was at least 5 µM; in assay [2] it was 0.2 to 5 µM; in the assay on A673 cells, 0.02 to 0.2 µM.

Regarding `FC(F)(F)c1cnc(N[C@@H]2CNCc3ccccc32)nc1-c1c[nH]c2ccccc12` [Compound 215], the IC50 on CDK2/Cyclin E1 complex was at least 5 µM; in assay [1], 0.02 to 0.2 µM; at CDK9/Cyclin T1 complex it was at least 5 µM; in assay [2] it was at least 5 µM; with A673 cells, 0.2 to 5 µM.

Consider `Cc1cccc2c(-c3nc(NC4CCCNC4)ncc3F)c[nH]c12` (stereo not shown) [Compound 138], for which the IC50 at CDK2/Cyclin E1 complex is 0.2 to 5 µM; in assay [1], 0.02 to 0.2 µM; against CDK9/Cyclin T1 complex it was 0.2 to 5 µM; in assay [2], 0.2 to 5 µM; with A673 cells, 0.2 to 5 µM.
